Experimental data published in patent US10294202B2, “Pyrrolidinones as herbicides” (FMC Corporation, priority 2013, dated 2019).

Key:
barnyardgrass [1] = test: Test A pre-/postemergence herbicide test; assay type: in vivo, Echinochloa crus-galli
Summary of the method: (§1)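 Visual 0–100 ratings (100 = complete control) made about 10 days after treatment, greenhouse-held plants compared with untreated controls. Treatments: postemergence sprays on one- to two-leaf plants (2–10 cm tall) and preemergence directed soil sprays after planting in loam–sand, chemicals formulated in non-phytotoxic solvent containing surfactant.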

crabgrass, large = test: Test A pre-/postemergence herbicide test; assay type: in vivo, Digitaria sanguinalis
Summary of the method: as §1

giant foxtail = test: Test A pre-/postemergence herbicide test; assay type: in vivo, Setaria faberii
Summary of the method: as §1

morningglory = test: Test A pre-/postemergence herbicide test; assay type: in vivo, Ipomoea spp.
Summary of the method: as §1

pigweed = test: Test A pre-/postemergence herbicide test; assay type: in vivo, Amaranthus retroflexus
Summary of the method: as §1

velvetleaf = test: Test A pre-/postemergence herbicide test; assay type: in vivo, Abutilon theophrasti
Summary of the method: as §1

wheat = test: Test A pre-/postemergence herbicide test; assay type: in vivo, Triticum aestivum
Summary of the method: as §1

corn = test: Test A pre-/postemergence herbicide test; assay type: in vivo, Zea mays
Summary of the method: as §1

rice = test: Test C flooded paddy test; assay type: in vivo, Oryza sativa; settings: Flood
Source text: (§2) Plant species in the flooded paddy test consisted of rice (Oryza sativa), sedge, umbrella (small-flower umbrella sedge, Cyperus difformis), ducksalad (Heteranthera limosa), and barnyardgrass (Echinochloa crus-galli) grown to the 2-leaf stage for testing. At time of treatment, test pots were flooded to 3 cm above the soil surface, treated by application of test compounds directly to the paddy water, and then maintained at that water depth for the duration of the test. Treated plants and controls were maintained in a greenhouse for 13 to 15 days, after which time all species were compared to controls and visually evaluated. Plant response ratings, summarized in Table C, are based on a scale of 0 to 100 where 0 is no effect and 100 is complete control. A dash (-) response means no test result.

sedge, umbrella = test: Test C flooded paddy test; assay type: in vivo, Cyperus difformis; settings: Flood
Source text: as §2

ducksalad = test: Test C flooded paddy test; assay type: in vivo, Heteranthera limosa; settings: Flood
Source text: as §2

barnyardgrass [2] = test: Test C flooded paddy test; assay type: in vivo, Echinochloa crus-galli; settings: Flood
Source text: as §2

kochia = test: Test A pre-/postemergence herbicide test; assay type: in vivo, Kochia scoparia; settings: for Plant response rating, Kochia: 0 to 100 scale
Summary of the method: as §1

ragweed = test: Test A pre-/postemergence herbicide test; assay type: in vivo, Ambrosia elatior; settings: for Plant response rating, Ragweed: 0 to 100 scale
Summary of the method: as §1

ryegrass, Italian = test: Test A pre-/postemergence herbicide test; assay type: in vivo, Lolium multiflorum; settings: for Plant response rating, Ryegrass, Italian: 0 to 100 scale
Summary of the method: as §1

blackgrass = test: Test A postemergence herbicide test; assay type: in vivo, Alopecurus myosuroides; settings: for Plant response rating, Blackgrass: 125 g ai/ha, 0 to 100 scale, 0 is no effect, 100 is complete control; for Blackgrass plant response rating (0 to 100 scale, 0 is no effect, 100 is complete control): 500 g ai/ha
Summary of the method: (§3)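 Blackgrass and galium grown in pots of loam soil–sand blend, treated postemergence at 2–10 cm height, one- to two-leaf stage. Plants kept in greenhouse ~10 days, then visually rated for injury against untreated controls on a 0–100 scale (0 no effect, 100 complete control).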

galium = test: Test A postemergence herbicide test; assay type: in vivo, Galium aparine; settings: for Plant response rating, Galium: 125 g ai/ha, 0 to 100 scale, 0 is no effect, 100 is complete control; for Galium plant response rating (0 to 100 scale, 0 is no effect, 100 is complete control): 500 g ai/ha
Summary of the method: as §3

[3] = Postemergence, 125 g ai/ha, 0 to 100 scale, 0 no effect, 100 complete control
[4] = Postemergence, 500 g ai/ha, 0 to 100 scale (0 no effect, 100 complete control)
[5] = Preemergence, 125 g ai/ha, visual rating on 0 to 100 scale (0 no effect, 100 complete control)
[6] = preemergence, 500 g ai/ha, 0 to 100 scale (0 no effect, 100 complete control)
[7] = preemergence, 500 g ai/ha, 0 to 100 scale
[8] = 31 g ai/ha, scale of 0 to 100 where 0 is no effect and 100 is complete control, 13 to 15 days
[9] = 62 g ai/ha, scale of 0 to 100 where 0 is no effect and 100 is complete control, 13 to 15 days
[10] = 125 g ai/ha, scale of 0 to 100 where 0 is no effect and 100 is complete control, 13 to 15 days
[11] = 125 g ai/ha, visual rating, 0 to 100 scale, 0 no effect, 100 complete control, approximately 10 days, preemergence
[12] = Postemergence, 125 g ai/ha, 0 to 100 scale, 0 is no effect, 100 is complete control
[13] = 125 g ai/ha, visual rating, 0 no effect, 100 complete control, approximately 10 days, preemergence
[14] = Postemergence, 125 g ai/ha, 0 is no effect, 100 is complete control
[15] = preemergence, 500 g ai/ha, 0 is no effect and 100 is complete control
[16] = preemergence, 500 g ai/ha, 0 to 100 scale, 0 is no effect and 100 is complete control

CC1NC(=O)C(C(=O)Nc2ccccc2C(F)(F)F)C1c1ccc(F)c(F)c1 (mixture of isomers) [Compound 10]
90: Crabgrass, Large plant response rating (crabgrass, large; [5]) | Plant response rating, Crabgrass, Large (crabgrass, large; [7]) | Plant response rating, Foxtail, Giant (giant foxtail; [7])
60: Plant response rating, Crabgrass, Large (crabgrass, large; [4]) | Foxtail, Giant plant response rating (giant foxtail; [5])
40: Plant response rating, Barnyardgrass (barnyardgrass [1]; [4]) | Plant response rating, Barnyardgrass (barnyardgrass [1]; [6])
0: Plant response rating, Barnyardgrass (barnyardgrass [1]; [3]) | Barnyardgrass plant response rating (barnyardgrass [1]; [5]) | Plant response rating, Foxtail, Giant (giant foxtail; [3]) | Plant response rating, Morningglory (morningglory; [3]) | Plant response rating, Morningglory (morningglory; [4]) | Morningglory plant response rating (morningglory; [5]) | Plant response rating, Morningglory (morningglory; [7]) | Plant response rating, Pigweed (pigweed; [3]) | Plant response rating, Pigweed (pigweed; [4]) | Pigweed plant response rating (pigweed; [5]) | Plant response rating, Pigweed (pigweed; [7]) | Plant response rating, Velvetleaf (velvetleaf; [3]) | Plant response rating, Velvetleaf (velvetleaf; [4]) | Velvetleaf plant response rating (velvetleaf; [5]) | Plant response rating, Velvetleaf (velvetleaf; [7]) | Plant response rating, Wheat (wheat; [3]) | Plant response rating, Wheat (wheat; [4]) | Wheat plant response rating (wheat; [5]) | Plant response rating, Wheat (wheat; [7]) | Plant response rating, Corn (corn; [3]) | Plant response rating, Corn (corn; [4]) | Corn plant response rating (corn; [5]) | Plant response rating, Corn (corn; [7]) | Plant response rating, Rice (rice; [8]) | Plant response rating, Rice (rice; [9]) | Plant response rating, Rice (rice; [10]) | Plant response rating, Rice (rice; 250 g ai/ha, scale 0 to 100) | Plant response rating, Sedge, Umbrella (sedge, umbrella; [8]) | Plant response rating, Sedge, Umbrella (sedge, umbrella; [9]) | Plant response rating, Sedge, Umbrella (sedge, umbrella; [10]) | Plant response rating, Sedge, Umbrella (sedge, umbrella; 250 g ai/ha, scale 0 to 100) | Plant response rating, Ducksalad (ducksalad; [8]) | Plant response rating, Ducksalad (ducksalad; [9]) | Plant response rating, Ducksalad (ducksalad; [10]) | Plant response rating, Ducksalad (ducksalad; 250 g ai/ha, scale 0 to 100) | Plant response rating, Barnyardgrass (barnyardgrass [2]; [8]) | Plant response rating, Barnyardgrass (barnyardgrass [2]; [9]) | Plant response rating, Barnyardgrass (barnyardgrass [2]; [10]) | Plant response rating, Barnyardgrass (barnyardgrass [2]; 250 g ai/ha, scale 0 to 100)
20: Plant response rating, Crabgrass, Large (crabgrass, large; [3])
30: Plant response rating, Foxtail, Giant (giant foxtail; [4])

O=C1NCC(c2ccc(OC(F)(F)C(F)F)cc2)C1C(=O)Nc1cccc(F)c1F (racemic) [Compound 172]
0: Plant response rating, Barnyardgrass (barnyardgrass [1]; [11]) | Plant response rating, Barnyardgrass (barnyardgrass [1]; [12]) | Plant response rating, Kochia (kochia; [14]) | Kochia plant response rating (0 to 100 scale, 0 is no effect, 100 is complete control) (kochia; Postemergence, 500 g ai/ha) | Plant response rating, Ragweed (ragweed; [13]) | Plant response rating, Ragweed (ragweed; [14]) | Ragweed plant response rating (0 to 100 scale, 0 is no effect, 100 is complete control) (ragweed; Postemergence, 500 g ai/ha) | Plant response rating, Ragweed (ragweed; [15]) | Plant response rating, Ryegrass, Italian (ryegrass, Italian; [13]) | Plant response rating, Ryegrass, Italian (ryegrass, Italian; [14]) | Ryegrass, Italian plant response rating (0 to 100 scale, 0 is no effect, 100 is complete control) (ryegrass, Italian; Postemergence, 500 g ai/ha) | Plant response rating, Ryegrass, Italian (ryegrass, Italian; [15]) | Plant response rating, Foxtail, Giant (giant foxtail; [12]) | Plant response rating, Pigweed (pigweed; [11]) | Plant response rating, Pigweed (pigweed; [12]) | Pigweed plant response rating (0 to 100 scale, 0 is no effect, 100 is complete control) (pigweed; Postemergence, 500 g ai/ha) | Plant response rating, Pigweed (pigweed; [16]) | Plant response rating, Wheat (wheat; [12]) | Wheat plant response rating (0 to 100 scale, 0 is no effect, 100 is complete control) (wheat; Postemergence, 500 g ai/ha) | Plant response rating, Corn (corn; [12]) | Corn plant response rating (0 to 100 scale, 0 is no effect, 100 is complete control) (corn; Postemergence, 500 g ai/ha) | Plant response rating, Blackgrass (blackgrass) | Blackgrass plant response rating (0 to 100 scale, 0 is no effect, 100 is complete control) (blackgrass) | Plant response rating, Galium (galium) | Galium plant response rating (0 to 100 scale, 0 is no effect, 100 is complete control) (galium)
20: Barnyardgrass plant response rating (0 to 100 scale, 0 is no effect, 100 is complete control) (barnyardgrass [1]; Postemergence, 500 g ai/ha) | Plant response rating, Barnyardgrass (barnyardgrass [1]; [6]) | Plant response rating, Foxtail, Giant (giant foxtail; [11])
30: Plant response rating, Kochia (kochia; [13]) | Plant response rating, Kochia (kochia; [15]) | Foxtail, Giant plant response rating (0 to 100 scale, 0 is no effect, 100 is complete control) (giant foxtail; Postemergence, 500 g ai/ha) | Plant response rating, Foxtail, Giant (giant foxtail; [7])

Cc1ccc(F)c(NC(=O)C2C(=O)NCC2c2cccc(C(F)(F)F)c2)c1 (racemic) [Compound 183]
0: Plant response rating, Barnyardgrass (barnyardgrass [1]; [11]) | Plant response rating, Barnyardgrass (barnyardgrass [1]; [12]) | Barnyardgrass plant response rating (0 to 100 scale, 0 is no effect, 100 is complete control) (barnyardgrass [1]; Postemergence, 500 g ai/ha) | Plant response rating, Barnyardgrass (barnyardgrass [1]; [16]) | Plant response rating, Kochia (kochia; [13]) | Plant response rating, Kochia (kochia; [14]) | Kochia plant response rating (0 to 100 scale, 0 is no effect, 100 is complete control) (kochia; Postemergence, 500 g ai/ha) | Plant response rating, Kochia (kochia; [15]) | Plant response rating, Ragweed (ragweed; [13]) | Plant response rating, Ragweed (ragweed; [14]) | Ragweed plant response rating (0 to 100 scale, 0 is no effect, 100 is complete control) (ragweed; Postemergence, 500 g ai/ha) | Plant response rating, Ragweed (ragweed; [15]) | Plant response rating, Ryegrass, Italian (ryegrass, Italian; [13]) | Plant response rating, Ryegrass, Italian (ryegrass, Italian; [14]) | Ryegrass, Italian plant response rating (0 to 100 scale, 0 is no effect, 100 is complete control) (ryegrass, Italian; Postemergence, 500 g ai/ha) | Plant response rating, Ryegrass, Italian (ryegrass, Italian; [15]) | Plant response rating, Foxtail, Giant (giant foxtail; [11]) | Plant response rating, Foxtail, Giant (giant foxtail; [12]) | Foxtail, Giant plant response rating (0 to 100 scale, 0 is no effect, 100 is complete control) (giant foxtail; Postemergence, 500 g ai/ha) | Plant response rating, Foxtail, Giant (giant foxtail; [16]) | Plant response rating, Pigweed (pigweed; [11]) | Plant response rating, Pigweed (pigweed; [12]) | Pigweed plant response rating (0 to 100 scale, 0 is no effect, 100 is complete control) (pigweed; Postemergence, 500 g ai/ha) | Plant response rating, Pigweed (pigweed; [16]) | Plant response rating, Wheat (wheat; [12]) | Wheat plant response rating (0 to 100 scale, 0 is no effect, 100 is complete control) (wheat; Postemergence, 500 g ai/ha) | Plant response rating, Corn (corn; [12]) | Corn plant response rating (0 to 100 scale, 0 is no effect, 100 is complete control) (corn; Postemergence, 500 g ai/ha) | Plant response rating, Blackgrass (blackgrass) | Blackgrass plant response rating (0 to 100 scale, 0 is no effect, 100 is complete control) (blackgrass) | Plant response rating, Galium (galium) | Galium plant response rating (0 to 100 scale, 0 is no effect, 100 is complete control) (galium)
